From US11161850B2, “Fused pyrazine derivatives as A2A / A2B inhibitors” (Incyte Corporation, priority 2018, dated 2021)
Where two headings read alike, the source gives them in different places.

Key:
[1] = target: Adenosine A2A (Homo sapiens (Human), UniProt P29274); test: A2A Tag-Lite HTRF assay; assay type: binding
Excerpt: Example C. A2A Tag-Lite® HTRF Assay

[2] = target: human adenosine A2B receptor (Homo sapiens (Human), UniProt P29275); test: Adenosine A2B Receptor Cyclic AMP GS Assay; assay type: cell-based; details: HEK-293 cells expressing human A2B, agonist NECA 12 nM
Chain of human adenosine A2B receptor (P29275 whole entry): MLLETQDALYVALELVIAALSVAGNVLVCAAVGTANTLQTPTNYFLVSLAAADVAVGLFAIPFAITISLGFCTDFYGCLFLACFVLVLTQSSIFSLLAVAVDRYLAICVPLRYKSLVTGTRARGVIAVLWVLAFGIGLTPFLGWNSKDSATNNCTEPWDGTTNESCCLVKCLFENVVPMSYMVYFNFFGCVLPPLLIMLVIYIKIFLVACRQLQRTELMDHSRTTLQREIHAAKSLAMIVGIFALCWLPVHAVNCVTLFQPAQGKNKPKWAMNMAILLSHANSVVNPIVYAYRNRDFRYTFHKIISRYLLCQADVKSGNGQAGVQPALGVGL
In short: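 Stably transfected HEK-293 cells were preincubated with compound for 30 min at room temperature, then stimulated with 12 nM NECA for 60 min. cAMP accumulation was read by FRET (665/620 ratio), and EC50 was fitted from percent of control versus log compound concentration.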

[3] = Tag-Lite Adenosine A2A labeled cells, fluorescent ligand 12.5 nM, read-out: A2A_Ki
[4] = read-out: A2A_Ki, Tag-Lite Adenosine A2A labeled cells, fluorescent ligand 12.5 nM

Chain of Adenosine A2A (P29274 whole entry): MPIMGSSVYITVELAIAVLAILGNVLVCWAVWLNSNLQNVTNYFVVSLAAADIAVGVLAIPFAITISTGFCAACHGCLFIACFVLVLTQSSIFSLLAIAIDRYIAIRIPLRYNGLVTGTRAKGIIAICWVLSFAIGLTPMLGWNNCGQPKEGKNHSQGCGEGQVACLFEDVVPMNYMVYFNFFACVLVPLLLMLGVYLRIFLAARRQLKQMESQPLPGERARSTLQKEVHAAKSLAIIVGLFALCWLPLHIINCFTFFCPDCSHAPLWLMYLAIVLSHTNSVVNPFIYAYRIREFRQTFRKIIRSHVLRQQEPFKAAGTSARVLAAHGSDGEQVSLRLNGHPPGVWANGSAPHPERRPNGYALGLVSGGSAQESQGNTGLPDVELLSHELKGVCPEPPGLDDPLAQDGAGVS

| SMILES | Ki [1, 3] | EC50 ([2]; A2B_cAMP_EC50 (nM)) | Ki [1] | Ki [1, 4] | EC50 ([2]; read-out: A2B_cAMP_EC50) |
| --- | --- | --- | --- | --- | --- |
| N#Cc1cccc(-c2nc(N)c3nc(Cc4cccn5ccnc45)nn3c2-c2ccncn2)c1 [Example 45, 3-(8-Amino-2-(imidazo[1,2-a]pyridin-8-ylmethyl)-5-(pyrimidin-4-yl)-[1,2,4]triazolo[1,5-a]pyrazin-6-yl)benzonitrile] | < 10 nM | < 10 nM |  |  |  |
| N#Cc1cccc(-c2nc(N)c3cc(C(O)c4ccccc4F)nn3c2-c2ccncn2)c1 (racemic) [Example 23, 3-(4-Amino-2-((2-fluorophenyl)(hydroxy)methyl)-7-(pyrimidin-4-yl)pyrazolo[1,5-a]pyrazin-6-yl)benzonitrile] | < 10 nM | < 10 nM |  |  |  |
| N#Cc1cccc(-c2nc(N)c3nc(C(O)c4c(F)cccc4F)nn3c2-c2cnco2)c1 (single isomer, unassigned) [Example 105, 3-(8-amino-2-((2,6-difluorophenyl)(hydroxy)methyl)-5-(oxazol-5-yl)-[1,2,4]triazolo[1,5-a]pyrazin-6-yl)benzonitrile] |  | < 10 nM | < 10 nM |  |  |
| N#Cc1cccc(-c2nc(N)c3cc(C(=O)N4CCC4)nn3c2-c2ccncn2)c1 [Example 7, 3-(4-Amino-2-(azetidine-1-carbonyl)-7-(pyrimidin-4-yl)pyrazolo[1,5-a]pyrazin-6-yl)benzonitrile] | < 10 nM | < 10 nM |  |  |  |
| N#Cc1cccc(-c2cn3nc(Cc4ccccn4)cc3c(N)n2)c1 [Example 16, 3-(4-Amino-2-(pyridin-2-ylmethyl)pyrazolo[1,5-a]pyrazin-6-yl)benzonitrile] | < 10 nM | < 10 nM |  |  |  |
| N#Cc1cccc(-c2nc(N)c3nc(C(O)c4c(F)cccc4OC(F)F)nn3c2-c2ccncn2)c1 (single isomer, unassigned) [Example 98, 3-(8-amino-2-((2-(difluoromethoxy)-6-fluorophenyl)(hydroxy)methyl)-5-(pyrimidin-4-yl)-[1,2,4]triazolo[1,5-a]pyrazin-6-yl)benzonitrile] |  |  |  | < 10 nM | < 10 nM |
| N#Cc1cccc(-c2cn3nc(Cc4c(F)cccc4-c4cnn(CC(N)=O)c4)nc3c(N)n2)c1F [Example 115, 2-(4-(2-((8-amino-6-(3-cyano-2-fluorophenyl)-[1,2,4]triazolo[1,5-a]pyrazin-2-yl)methyl)-3-fluorophenyl)-1H-pyrazol-1-yl)acetamide] | < 10 nM | < 10 nM |  |  |  |
| [2H]C([2H])([2H])n1nc(-c2c(-c3cccc(C#N)c3)nc(N)c3nc(Cc4ccccn4)nn23)ccc1=O [Example 127, 3-(8-amino-5-(1-(methyl-d3)-6-oxo-1,6-dihydropyridazin-3-yl)-2-(pyridin-2-ylmethyl)-[1,2,4]triazolo[1,5-a]pyrazin-6-yl)benzonitrile] |  | < 10 nM | < 10 nM |  |  |
| N#Cc1cccc(-c2nc(N)c3nc(Cc4ccccn4)nn3c2-c2ccncn2)c1 [Example 27, 3-(8-Amino-2-(pyridin-2-ylmethyl)-5-(pyrimidin-4-yl)-[1,2,4]triazolo[1,5-a]pyrazin-6-yl)benzonitrile] | < 10 nM | < 10 nM |  |  |  |
| CN1CC[C@H](NCc2cccc(F)c2Cc2nc3c(N)nc(-c4cccc(C#N)c4F)cn3n2)C1=O [Example 84, (S)-3-(8-amino-2-(2-fluoro-6-(((1-methyl-2-oxopyrrolidin-3-yl)amino)methyl)benzyl)-[1,2,4]triazolo[1,5-a]pyrazin-6-yl)-2-fluorobenzonitrile] | < 10 nM | < 10 nM |  |  |  |
| Cn1cc(-c2c(-c3cccc(C#N)c3)nc(N)c3nc(Cc4ccccn4)nn23)ccc1=O [Example 28, 3-(8-Amino-5-(1-methyl-6-oxo-1,6-dihydropyridin-3-yl)-2-(pyridin-2-ylmethyl)-[1,2,4]triazolo[1,5-a]pyrazin-6-yl)benzonitrile] | < 10 nM | 10 to 100 nM |  |  |  |
| N#Cc1cccc(-c2nc(N)c3nc(Cc4ccccn4)nn3c2-c2ccc(O)nc2)c1 [Example 62, 3-(8-amino-5-(6-hydroxypyridin-3-yl)-2-(pyridin-2-ylmethyl)-[1,2,4]triazolo[1,5-a]pyrazin-6-yl)benzonitrile] | < 10 nM | < 10 nM |  |  |  |
| N#Cc1cccc(-c2nc(N)c3ncnn3c2-c2ccc3nccn3c2)c1 [Example 124, 3-(8-Amino-5-(imidazo[1,2-a]pyridin-6-yl)-[1,2,4]triazolo[1,5-a]pyrazin-6-yl)benzonitrile] | < 10 nM | < 10 nM |  |  |  |
| CCn1nncc1-c1c(-c2cccc(C#N)c2)nc(N)c2cc(Cc3ccccn3)nn12 [Example 36, 3-(4-Amino-7-(1-ethyl-1H-1,2,3-triazol-5-yl)-2-(pyridin-2-ylmethyl)pyrazolo[1,5-a]pyrazin-6-yl)benzonitrile] | < 10 nM | < 10 nM |  |  |  |
| Cc1nc(C(O)C(F)F)c(-c2c(-c3cccc(C#N)c3)nc(N)c3cc(Cc4ccccn4)nn23)o1 (centres unmarked) [Example 35, 3-(4-Amino-7-(4-(2,2-difluoro-1-hydroxyethyl)-2-methyloxazol-5-yl)-2-(pyridin-2-ylmethyl)pyrazolo[1,5-a]pyrazin-6-yl)benzonitrile] | < 10 nM | < 10 nM |  |  |  |
| CCNC(=O)c1cc2c(N)nc(-c3cccc(C#N)c3)c(C(C)(F)F)n2n1 [Example 5, 4-Amino-6-(3-cyanophenyl)-7-(1,1-difluoroethyl)-N-ethylpyrazolo[1,5-a]pyrazine-2-carboxamide] | < 10 nM | 100 to 1000 nM |  |  |  |
| Cn1nc(-c2c(-c3cccc(C#N)c3)nc(N)c3nc(Cc4ccccn4)nn23)ccc1=O [Example 29, 3-(8-Amino-5-(1-methyl-6-oxo-1,6-dihydropyridazin-3-yl)-2-(pyridin-2-ylmethyl)-[1,2,4]triazolo[1,5-a]pyrazin-6-yl)benzonitrile] |  | < 10 nM | < 10 nM |  |  |
| N#Cc1cccc(-c2cn3nc(Cc4c(F)cccc4-c4cnn(Cc5ccccn5)c4)nc3c(N)n2)c1F [Example 107, 3-(8-amino-2-(2-fluoro-6-(1-(pyridin-2-ylmethyl)-1H-pyrazol-4-yl)benzyl)-[1,2,4]triazolo[1,5-a]pyrazin-6-yl)-2-fluorobenzonitrile] | < 10 nM | 10 to 100 nM |  |  |  |
| Cc1nc(C(C)O)c(-c2c(-c3cccc(C#N)c3)nc(N)c3cc(Cc4ccccn4)nn23)o1 (centres unmarked) [Example 34, 3-(4-Amino-7-(4-(1-hydroxyethyl)-2-methyloxazol-5-yl)-2-(pyridin-2-ylmethyl)pyrazolo[1,5-a]pyrazin-6-yl)benzonitrile] | < 10 nM | 10 to 100 nM |  |  |  |
| Cc1nc(C(O)C(F)F)c(-c2c(-c3cccc(C#N)c3F)nc(N)c3nc(Cc4ccccn4)nn23)o1 (centres unmarked) [Example 87, 3-(8-amino-5-(4-(2,2-difluoro-1-hydroxyethyl)-2-methyloxazol-5-yl)-2-(pyridin-2-ylmethyl)-[1,2,4]triazolo[1,5-a]pyrazin-6-yl)-2-fluorobenzonitrile] | < 10 nM | 10 to 100 nM |  |  |  |
| CCNC(=O)c1cc2c(N)nc(-c3cccc(C#N)c3)c(-c3ccnn3CC)n2n1 [Example 1, 4-Amino-6-(3-cyanophenyl)-N-ethyl-7-(1-ethyl-1H-pyrazol-5-yl)pyrazolo[1,5-a]pyrazine-2-carboxamide] | < 10 nM | 10 to 100 nM |  |  |  |
| CCN(CC)C(=O)c1cc2c(N)nc(-c3cccc(C#N)c3)c(-c3ccncn3)n2n1 [Example 10, 4-Amino-6-(3-cyanophenyl)-N,N-diethyl-7-(pyrimidin-4-yl)pyrazolo[1,5-a]pyrazine-2-carboxamide] | < 10 nM | < 10 nM |  |  |  |
| CCc1ncoc1-c1c(-c2cccc(C#N)c2)nc(N)c2nc(Cc3ccccn3)nn12 [Example 43, 3-(8-Amino-5-(4-ethyloxazol-5-yl)-2-(pyridin-2-ylmethyl)-[1,2,4]triazolo[1,5-a]pyrazin-6-yl)benzonitrile] | < 10 nM | < 10 nM |  |  |  |
| N#Cc1cccc(-c2nc(N)c3nc(Cc4c(F)cccc4CN[C@H]4CCNC4=O)nn3c2-c2ccncn2)c1 [Example 68, (S)-3-(8-amino-2-(2-fluoro-6-(((2-oxopyrrolidin-3-yl)amino)methyl)benzyl)-5-(pyrimidin-4-yl)-[1,2,4]triazolo[1,5-a]pyrazin-6-yl)benzonitrile] | < 10 nM | 10 to 100 nM |  |  |  |
| N#Cc1cccc(-c2nc(N)c3nc(Cc4c(F)cccc4CN4CC[C@H](C(=O)O)C4)nn3c2-c2ccncn2)c1 [Example 30, (S)-1-(2-((8-Amino-6-(3-cyanophenyl)-5-(pyrimidin-4-yl)-[1,2,4]triazolo[1,5-a]pyrazin-2-yl)methyl)-3-fluorobenzyl)pyrrolidine-3-carboxylic Acid] | < 10 nM | 10 to 100 nM |  |  |  |
| N#Cc1cccc(-c2nc(N)c3nc(Cc4ncccc4-c4cnco4)nn3c2-c2ccncn2)c1 [Example 82, 3-(8-amino-2-((3-(oxazol-5-yl)pyridin-2-yl)methyl)-5-(pyrimidin-4-yl)-[1,2,4]triazolo[1,5-a]pyrazin-6-yl)benzonitrile] | < 10 nM | < 10 nM |  |  |  |
| N#Cc1cccc(-c2nc(N)c3nc(C(O)c4ccccc4F)nn3c2-c2ccncn2)c1 (single isomer, unassigned) [Example 56, 3-(8-Amino-2-((2-fluorophenyl)(hydroxy)methyl)-5-(pyrimidin-4-yl)-[1,2,4]triazolo[1,5-a]pyrazin-6-yl)benzonitrile] |  |  |  | < 10 nM | < 10 nM |
| N#Cc1cccc(-c2nc(N)c3nc(Cc4c(F)cccc4CN4CC(C(=O)O)C4)nn3c2-c2ccncn2)c1 [Example 31, 1-(2-((8-Amino-6-(3-cyanophenyl)-5-(pyrimidin-4-yl)-[1,2,4]triazolo[1,5-a]pyrazin-2-yl)methyl)-3-fluorobenzyl)azetidine-3-carboxylic Acid] | < 10 nM | 10 to 100 nM |  |  |  |
